# Test results from publication PMC7122821, “Molecular basis of P[II] major human rotavirus VP8* domain recognition of histo-blood group antigens” (PLoS Pathogens, 2020).
# Several values for one entry are separate records, joined by “and”; a condition that tells them apart may be missing. Equal entries are not always repeated. Entries after “also recorded” stand apart in the source; their conditions may differ.
# How the values were obtained:
# [1] = test system: K168A-P[8] VP8* mutant; experiment: HSQC NMR titration of K168A-P[8] mutant with LNDFH I; assay type: binding, human RV; conditions: same ligand ratio as wild type P[8]
# Method: (§1) The VP8* core fragments (amino acids 64 to 223) of the human RV P[8] (BM13851) and P[6] (BM11596) with an N-terminal glutathione S-transferase (GST) tag was overexpressed in Escherichia coli BL21 (DE3) cells as previously described. The P[8] T78A, D79A, K168A, R154A, H177A, and D186A mutations were generated through overlap-extension site mutagenesis, and the sequences were confirmed at the Center for Bioinformatics and Functional Genomics (CBFG) at Miami University. Cells were grown in 1L Luria broth (LB) medium supplemented with 100 μg mL^-1 ampicillin at 310 K. When the OD600 reached 0.8, 0.5 mM isopropyl-β-D-thiogalactopyranoside was added to the medium to induce protein expression. The cell pellet was harvested within 12 h after induction and re-suspended in the phosphate-buffered saline (PBS) buffer (140 mM NaCl, 2.7 mM KCl, 10 mM Na2HPO4, 1.8 mM KH2PO4, pH 7.3). […]
# (§2) Chemical shift perturbations were followed by 2D ^1H-^15N HSQC for P[8] […] Spectra were process with NMRPipe software and analyzed with SPARKY [69]. The chemical shift changes upon titration was determined by the following formula [71]: Δδobs=1/2[δH2+(α·δN2)],δH=δHfree−δHbound,δN=δNfree−δNbound . […] Standard deviation σ of the Euclidean chemical shift change was calculated and threshold value was chosen from 1.5σ to 2.5σ for the VP8*-HBGA by balancing the specificity and sensitivity. […]
# [2] = test system: P[8] VP8*; experiment: STD NMR of glycans with P[8] VP8*; assay type: binding, human RV; conditions: 283 K; 1:50 or 1:56 protein:ligand
# Method: (§3) All STD NMR spectra were acquired in Shigemi Tubes (Shigemi, USA) on 600-MHz Bruker Avance III and 850-MHz Bruker Avance II NMR spectrometers equipped with conventional 5-mm HCN probes at 283 K with pulse sequence STDDIFFESGP.3. The NMR samples for P[8] VP8* were prepared as 46 μM P[8] VP8* with 2.3 mM LNDFHI (1:50 protein: ligand ratio), and 33 μM P[8] VP8* with 1.86 mM Le^b tetra-saccharide (1:56 protein: ligand ratio). The NMR samples for P[6] VP* were prepared as 46 μM P[6] with 4.6 mM LNT (1:100 protein: ligand ratio), and 46 μM P[6] with 2.3 mM LNT (1:50 protein: ligand ratio). A control sample was prepared as 40 μM GST with 2.0 mM LNDFHI (1:50 protein: ligand ratio). […] The protein resonances were saturated with a cascade of Gaussian-shaped pulses with a duration of 50 ms, with a total saturation time of 2 s and 4 s. The on resonance was chosen to selectively saturate only the proteins for each sample. […] The STD amplification factors were determined by the equation (ISTD/IO) × molar ratio, where I0 are the intensities of the signals in the reference spectrum, and ISTD are intensities that obtained by subtracting the on-resonance spectrum from the off-resonance spectrum. The normalized STD amplification percentage for epitope mapping was determined by dividing by the largest STD amplification factor for each ligand.
# [3] = test system: D186A-P[8] VP8* mutant; experiment: HSQC NMR titration of D186A-P[8] mutant with LNDFH I; assay type: binding, human RV; conditions: same ligand ratio as wild type P[8]
# Method: as §1, §2
# [4] = test system: T78A-P[8] VP8* mutant; experiment: HSQC NMR titration of T78A-P[8] mutant with LNDFH I; assay type: binding, human RV; conditions: same ligand ratio as wild type P[8]
# Method: as §1, §2
# [5] = test system: glutathione S-transferase (GST); experiment: STD NMR negative control with GST; assay type: binding; conditions: 40 μM GST with 2.0 mM ligand
# Method: as §3
# [6] = test system: D79A-P[8] VP8* mutant; experiment: HSQC NMR titration of D79A-P[8] mutant with LNDFH I; assay type: binding, human RV; conditions: same ligand ratio as wild type P[8]
# Method: as §1, §2
# [7] = target: P[8] VP8* (BM13851) (Rotavirus A, UniProt P11193); experiment: 2D 1H-15N HSQC NMR titration of P[8] VP8* with glycans; assay type: binding, human RV; conditions: for Kd: read-out: dissociation constant (Kd), PBS buffer, global fitting
# Method: Chemical shift perturbations were followed by 2D ^1H-^15N HSQC for P[8] VP8*, P[8] mutants, and P[6] VP8* upon titration of each glycan ligand. NMR data were collected with samples in PBS buffer in 5-mm Shigemi NMR tubes on 600-MHz Bruker Avance III or 850-MHz Bruker Avance II NMR spectrometers equipped with conventional 5-mm HCN probes. Samples of 0.20 mM ^15N-labeled P[8] VP8* was titrated with LNDFH I at 0, 0.020, 0.040, 0.80, 1.00, 1.20, 1.40, 1.60, 2.00, 2.80, 3.60, 4.40, 5.00 mM. The same ratio of LNDFH I was titrated to each P[8] mutant as the titration of LNDFH I to wild type P[8]. Samples of 0.31 mM ^15N-labeled P[8] VP8* was titrated with Le^b tetra-saccharide at 0, 0.031, 0.15, 0.31, 0.62, 1.24, 2.49, 4.35, 5.60, 6.84, 7.78, 8.71, 9.33 mM. Samples of 0.24 mM ^15N-labeled P[6] VP8* was titrated with LNFP I at 0, 0.024, 0.12, 0.24, 0.48, 0.96, 1.93, 3.37, 4.34, 5.30, 6.03, 6.75, 7.23, 8.44 mM. Samples of 0.33 mM ^15N-labeled P[6] VP8* was titrated with LNT at 0, 0.033, 0.17, 0.33, 0.69, 1.34, 2.67, 4.68, 6.01, 7.35, 8.35 mM. Spectra were process with NMRPipe software and analyzed with SPARKY [69]. The chemical shift changes upon titration was determined by the following formula [71]: Δδobs=1/2[δH2+(α·δN2)],δH=δHfree−δHbound,δN=δNfree−δNbound . Where δH free and δH bound are the backbone amide hydrogen chemical shifts in the absence and presence of ligand, δN free and δN bound are the amide nitrogen chemical shifts in the free and bound state. The value of Euclidean weighting correction factor α was set to 0.14 [72]. Standard deviation σ of the Euclidean chemical shift change was calculated and threshold value was chosen from 1.5σ to 2.5σ for the VP8*-HBGA by balancing the specificity and sensitivity. Amino acids with chemical shifts greater than the threshold value were used to calculate the dissociation constants. Dissociation constants were obtained by fitting the following equation: Δδobs=Δδmax{([P]t+[L]t+Kd)−[([P]t+[L]t+Kd)^2−4[P]t[L]t]^1/2}/2Pt . Where [P]t and [L]t represent the total concentrations of protein and ligand, Δδobs is the change in the observed chemical shift from the free state, Δδmax is the maximum chemical shift change on saturation, Kd represents the dissociation constant.
# [8] = test system: H177A-P[8] VP8* mutant; experiment: HSQC NMR titration of H177A-P[8] mutant with LNDFH I; assay type: binding, human RV; conditions: same ligand ratio as wild type P[8]
# Method: as §1, §2
# [9] = test system: R154A-P[8] VP8* mutant; experiment: HSQC NMR titration of R154A-P[8] mutant with LNDFH I; assay type: binding, human RV; conditions: same ligand ratio as wild type P[8]
# Method: as §1, §2
# [10] = test system: P[6] VP8*; experiment: STD NMR of glycans with P[6] VP8*; assay type: binding, human RV; conditions: 283 K
# Method: as §3
# [11] = target: P[6] VP8* (BM11596) (Rotavirus A, UniProt D2DXN5); experiment: 2D 1H-15N HSQC NMR titration of P[6] VP8* with glycans; assay type: binding, human RV
# Method: Chemical shift perturbations were followed by 2D ^1H-^15N HSQC for P[8] VP8*, P[8] mutants, and P[6] VP8* upon titration of each glycan ligand. NMR data were collected with samples in PBS buffer in 5-mm Shigemi NMR tubes on 600-MHz Bruker Avance III or 850-MHz Bruker Avance II NMR spectrometers equipped with conventional 5-mm HCN probes. Samples of 0.20 mM ^15N-labeled P[8] VP8* was titrated with LNDFH I at 0, 0.020, 0.040, 0.80, 1.00, 1.20, 1.40, 1.60, 2.00, 2.80, 3.60, 4.40, 5.00 mM. The same ratio of LNDFH I was titrated to each P[8] mutant as the titration of LNDFH I to wild type P[8]. Samples of 0.31 mM ^15N-labeled P[8] VP8* was titrated with Le^b tetra-saccharide at 0, 0.031, 0.15, 0.31, 0.62, 1.24, 2.49, 4.35, 5.60, 6.84, 7.78, 8.71, 9.33 mM. Samples of 0.24 mM ^15N-labeled P[6] VP8* was titrated with LNFP I at 0, 0.024, 0.12, 0.24, 0.48, 0.96, 1.93, 3.37, 4.34, 5.30, 6.03, 6.75, 7.23, 8.44 mM. Samples of 0.33 mM ^15N-labeled P[6] […] Spectra were process with NMRPipe software and analyzed with SPARKY [69]. The chemical shift changes upon titration was determined by the following formula [71]: Δδobs=1/2[δH2+(α·δN2)],δH=δHfree−δHbound,δN=δNfree−δNbound . […] Standard deviation σ of the Euclidean chemical shift change was calculated and threshold value was chosen from 1.5σ to 2.5σ for the VP8*-HBGA by balancing the specificity and sensitivity. […]
# [12] = test system: P[8] VP8*; parameters: method as in PMID 31226167; conditions: cited from earlier work
Structure (SMILES),binding to P[8] VP8* by STD NMR [2],Kd [7],binding to P[6] VP8* by STD NMR [10],Kd [11] [mM],other results
"CC(=O)NC1C(OC2C(O)C(CO)OC(OC3C(CO)OC(O)C(O)C3O)C2O)OC(CO)C(OC2OC(C)C(O)C(O)C2O)C1OC1OC(CO)C(O)C(O)C1OC1OC(C)C(O)C(O)C1O (stereo not drawn) [LNDFH I, lacto-N-difucohexaose I]",found to bind,6.3 mM and 6.29 mM,–,–,binding to K168A-P[8] mutant [1]: retained binding to the glycan; binding to D186A-P[8] mutant [3]: significant loss of binding to the glycan; binding to T78A-P[8] mutant [4]: retained binding to the glycan; STD NMR signal with GST (negative control) [5]: did not show significant signal intensities; binding to D79A-P[8] mutant [6]: retained binding to the glycan; binding to H177A-P[8] mutant [8]: significant loss of binding to the glycan; binding to R154A-P[8] mutant [9]: significant loss of binding to the glycan
"CC(=O)NC1C(OC2C(O)C(CO)OC(OC3C(CO)OC(O)C(O)C3O)C2O)OC(CO)C(O)C1OC1OC(CO)C(O)C(O)C1OC1OC(C)C(O)C(O)C1O (stereo not drawn) [LNFP I, lacto-N-fucopentaose I]",–,23.5 mM,bound,13.6 ± 1.7,–
"CC(=O)NC1C(OC2C(O)C(CO)OC(OC3C(CO)OC(O)C(O)C3O)C2O)OC(CO)C(O)C1OC1OC(CO)C(O)C(O)C1O (stereo not drawn) [LNT, lacto-N-tetraose]",–,–,bound,2.5 ± 0.2,binding to P[8] VP8* in HSQC titration [7]: little binding signal; also recorded: did not recognize
"CC(=O)NC1C(O)OC(CO)C(OC2OC(C)C(O)C(O)C2O)C1OC1OC(CO)C(O)C(O)C1OC1OC(C)C(O)C(O)C1O (stereo not drawn) [Le^b tetra-saccharide, Fucα1-2Galβ1–3[Fucα1–4]GlcNAc]",found to bind,20.3 ± 4.8 mM,–,–,–
CC(=O)N[C@H]1C(O)O[C@H](CO)[C@@H](O)[C@@H]1O[C@@H]1O[C@H](CO)[C@H](O)[C@H](O)[C@H]1O (stereo partly drawn) [lacto-N-biose],–,–,–,–,affinity relative to H1 trisaccharide [12]: two-fold weaker affinity
